Laboratory results taken from PubChem BioAssay AID1845209 (Molecular Pharmacology Branch, DTP, NCI, 2023).

Tested on: NCI-H211 tumor spheroids, viability percent test/control
Assay: Anticancer human tumor NCI-H211 cell line growth inhibition;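 note: spheroids exposed to agents for seven days before readout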
Settings: spheroids with HUVEC and MSC; for IC50: curve of first compound; for viability, T/C: stronger effect = lower value
How it was run: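 Single agents and combinations were tested on spheroids built from tumor cells plus HUVEC and hMSC, at half-log dilutions starting at or near clinical Cmax, else 10 microM; final DMSO 0.25% (v/v).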

[1] = second compound 1 µM, first compound 0.00949 µM
[2] = second compound 1 µM, first compound 0.03 µM
[3] = second compound 1 µM, first compound 0.0949 µM
[4] = second compound 1 µM, first compound 0.3 µM
[5] = second compound 1 µM, first compound 0.949 µM
[6] = second compound 1 µM, first compound 3 µM
[7] = second compound 3.16 µM, first compound 0.00949 µM
[8] = second compound 3.16 µM, first compound 0.03 µM
[9] = second compound 3.16 µM, first compound 0.0949 µM
[10] = second compound 3.16 µM, first compound 0.3 µM
[11] = second compound 3.16 µM, first compound 0.949 µM
[12] = second compound 3.16 µM, first compound 3 µM
[13] = second compound 10 µM, first compound 0.00949 µM
[14] = second compound 10 µM, first compound 0.03 µM
[15] = second compound 10 µM, first compound 0.0949 µM
[16] = second compound 10 µM, first compound 0.3 µM
[17] = second compound 10 µM, first compound 0.949 µM
[18] = second compound 10 µM, first compound 3 µM
[19] = second compound 31.6 µM, first compound 0.00949 µM
[20] = second compound 31.6 µM, first compound 0.03 µM
[21] = second compound 31.6 µM, first compound 0.0949 µM
[22] = second compound 31.6 µM, first compound 0.3 µM
[23] = second compound 31.6 µM, first compound 0.949 µM
[24] = second compound 31.6 µM, first compound 3 µM
[25] = second compound 100 µM, first compound 0.00949 µM
[26] = second compound 100 µM, first compound 0.03 µM
[27] = second compound 100 µM, first compound 0.0949 µM
[28] = second compound 100 µM, first compound 0.3 µM
[29] = second compound 100 µM, first compound 0.949 µM
[30] = second compound 100 µM, first compound 3 µM

Compound | IC50 (second compound 1 µM) | IC50 (second compound 3.16 µM) | IC50 (second compound 10 µM) | IC50 (second compound 31.6 µM) | IC50 (second compound 100 µM) | viability, T/C [3] | viability, T/C [4] | viability, T/C [5] | viability, T/C [6] | viability, T/C [9] | viability, T/C [10] | viability, T/C [11] | viability, T/C [12] | viability, T/C [15] | viability, T/C [16] | viability, T/C [17] | viability, T/C [18] | viability, T/C [21] | viability, T/C [22] | viability, T/C [23] | other results
CNCc1ccc(-c2cc(-c3nc(-c4ccc(S(=O)(=O)C(C)C)cc4)cnc3N)on2)cc1 + Cn1nnc2c(C(N)=O)ncn2c1=O | 11.5 nM | 19.7 nM | 16.8 nM | < 9.49 nM | < 9.49 nM | 6.53% | 1.07% | 0.07% | 0.11% | 7.5% | 0.64% | 0.13% | 0.1% | 6.3% | 0.72% | 0.13% | 0.13% | 2.14% | 1.16% | 0.14% | viability, T/C [1]: 53%; viability, T/C [2]: 35.3%; viability, T/C [7]: 71%; viability, T/C [8]: 37.9%; viability, T/C [13]: 66.9%; viability, T/C [14]: 32.9%; viability, T/C [19]: 34%; viability, T/C [20]: 9.23%; viability, T/C [24]: 0.14%; viability, T/C [25]: 11%; viability, T/C [26]: 2.34%; viability, T/C [27]: 1.63%; viability, T/C [28]: 1.21%; viability, T/C [29]: 0.17%; viability, T/C [30]: 0.23%
Cc1sc2c(c1C)C(c1ccc(Cl)cc1)=NC(CC(=O)Nc1ccc(O)cc1)c1nnc(C)n1-2 (stereo not given) + Cn1nnc2c(C(N)=O)ncn2c1=O | < 9.49 nM | < 9.49 nM | < 9.49 nM | < 9.49 nM | < 9.49 nM | 0.88% | 0.67% | 0.78% | 0.72% | 0.97% | 0.76% | 0.66% | 0.82% | 1.15% | 0.79% | 0.76% | 0.74% | 1.02% | 0.79% | 0.71% | viability, T/C [1]: 25.5%; viability, T/C [2]: 2.24%; viability, T/C [7]: 36.7%; viability, T/C [8]: 3.37%; viability, T/C [13]: 31.8%; viability, T/C [14]: 1.97%; viability, T/C [19]: 22%; viability, T/C [20]: 1.97%; viability, T/C [24]: 0.82%; viability, T/C [25]: 6.77%; viability, T/C [26]: 1.61%; viability, T/C [27]: 1.08%; viability, T/C [28]: 1.09%; viability, T/C [29]: 0.86%; viability, T/C [30]: 1.03%
Cn1ncnc1[C@H]1c2n[nH]c(=O)c3cc(F)cc(c23)N[C@@H]1c1ccc(F)cc1 + Cn1nnc2c(C(N)=O)ncn2c1=O | < 9.49 nM | < 9.49 nM | < 9.49 nM | < 9.49 nM | < 9.49 nM | 2.71% | 3.04% | 3.81% | 3.16% | 3.93% | 3.87% | 3.65% | 3.16% | 3.49% | 3.08% | 3.95% | 3.46% | 3.47% | 3.72% | 3.28% | viability, T/C [1]: 3.46%; viability, T/C [2]: 3.69%; viability, T/C [7]: 3.37%; viability, T/C [8]: 3.4%; viability, T/C [13]: 3.37%; viability, T/C [14]: 3.82%; viability, T/C [19]: 3.2%; viability, T/C [20]: 3.45%; viability, T/C [24]: 3.57%; viability, T/C [25]: 2.87%; viability, T/C [26]: 3.97%; viability, T/C [27]: 3.4%; viability, T/C [28]: 3.21%; viability, T/C [29]: 3.43%; viability, T/C [30]: 3.17%
O=C(c1cc(Cc2n[nH]c(=O)c3ccccc23)ccc1F)N1CCN(C(=O)C2CC2)CC1 + Cn1nnc2c(C(N)=O)ncn2c1=O | < 94.9 nM | < 94.9 nM | < 94.9 nM | < 94.9 nM | < 94.9 nM | 38.8% | 24.3% | 9.48% | 11.2% | 39.2% | 16.4% | 12.2% | 8.6% | 20.4% | 13.6% | 8.65% | 8.76% | 9.76% | 10.7% | 8.79% | viability, T/C (second compound 1 µM, first compound 9.49 µM): 7.85%; viability, T/C (second compound 1 µM, first compound 30 µM): 6.43%; viability, T/C (second compound 3.16 µM, first compound 9.49 µM): 8.67%; viability, T/C (second compound 3.16 µM, first compound 30 µM): 6.42%; viability, T/C (second compound 10 µM, first compound 9.49 µM): 8.42%; viability, T/C (second compound 10 µM, first compound 30 µM): 5.87%; viability, T/C [24]: 8.73%; viability, T/C (second compound 31.6 µM, first compound 9.49 µM): 8.23%; viability, T/C (second compound 31.6 µM, first compound 30 µM): 6.62%; viability, T/C [27]: 10.7%; viability, T/C [28]: 9.41%; viability, T/C [29]: 10.1%; viability, T/C [30]: 9.99%; viability, T/C (second compound 100 µM, first compound 9.49 µM): 8.37%; viability, T/C (second compound 100 µM, first compound 30 µM): 6.94%
